Results on four molecules are retold here after article PMC12114619, “Nifuroxazide and 4-Hydroxybenzhydrazone Derivatives as New Antiparasitic (Trypanosoma cruzi and Leishmania mexicana) and Anti-Mycobacterium tuberculosis Agents” (Pharmaceutics, 2025).

Series [1] relates to amastigotes of the L. major IR-173 strain. Further details: method as in PMID 35732232. The settings on record: read-out: IC50 against amastigotes of L. major IR-173; cited from earlier work.
Series [2] is described as follows: Cytotoxicity on macrophages (MTT). In kind it is cell-based, mouse. Particulars: mouse, Cytotoxicity (CC50) Macrophages J774.2.
Method: (§2) Cytotoxicity was assessed on J774.2 mouse macrophage cells (ATCC® TIB-67, ATCC, Manassas, VA, USA). Cells were cultured in RPMI medium supplemented with 10% SFB, 100 U µg/mL penicillin-100 mg/mL streptomycin, and glutamine (2 mM) at 37 °C and in a 5% CO2 atmosphere. A known concentration of cells (1 × 10^6/mL) was incubated with the compounds at different concentrations (0.78 to 200 µM) for 48 h at 37 °C in a CO2 atmosphere (5%). Wells containing cells treated with 0.2% DMSO were used as a negative control. MTT was employed to evaluate the metabolic activity. Next, the cell viability was calculated (%), and the cytotoxic concentration (CC50) was determined with probit analysis. All samples were evaluated in triplicate in three independent experiments.
For series [3], the system named is J774.2 mouse macrophage cells. The series is described as follows: Cytotoxicity on macrophages (MTT). It is filed as cell-based.
Method: as §2
In series [4] the test system is M. tuberculosis H37Rv (ATCC 27294). Briefly: Anti-Mycobacterium activity, microplate Alamar Blue Assay (MABA). The settings on record: Mycobacterium tuberculosis, H37Rv strain, minimum concentration achieving 90% inhibition. In kind it is cell-based, Mycobacterium tuberculosis. On the procedure:
The reference strain H37Rv (ATCC 27294) of M. tuberculosis was utilized to assess anti-M. tuberculosis activity using the microplate Alamar Blue Assay (MABA), as previously reported. Samples underwent evaluation in triplicate independent experiments. Isoniazid, rifampicin, moxifloxacin, and linezolid were included as reference drugs, and the minimum drug concentration that achieved 90% inhibition was recorded as the minimum inhibitory concentration (MIC).

In series [5] the test system is L. mexicana MNYC/BZ/62/M379 promastigotes. Briefly: Leishmanicidal activity, L. mexicana promastigotes, M379 strain (MTT). In kind it is cell-based, Leishmania mexicana. The settings on record: 48 h. On the procedure: (§1) For leishmanicidal assays, the reference strain (MNYC/BZ/62/M379) and the isolate (MHOM/MX/2017/UABJO17FCQEPS) of L. mexicana were used. Promastigotes were cultured in RPMI 1640 medium supplemented with 10% FBS, 100 U/mL penicillin-100 […] streptomycin, and glutamine (2 mM). 100 µL parasites (5 × 10^5/mL) were added in a 96-well plate, and 100 µL of appropriate concentrations (0.78 to 200 µM) of each sample dissolved in DMSO and incubated for 48 h at 26 °C. Wells containing promastigotes with DMSO 0.2% were used as a negative control, and the reference drug glucantime was included as the positive control. The 3-(4,5-Dimethylthiazol-2-yl)-2,5-diphenyltetrazolium bromide (MTT) was used to measure metabolic activity. The IC50 values were calculated with the probit statistical tool. All samples were evaluated in triplicate in three independent experiments.

In series [6] the test system is L. mexicana MHOM/MX/2017/UABJO17FCQEPS promastigotes. Briefly: Leishmanicidal activity, L. mexicana promastigotes, FCQEPS isolate (MTT). It is filed as cell-based, Leishmania mexicana. Particulars: 48 h, FCQEPS strain. On the procedure: as §1
For series [7], the system named is T. cruzi NINOA (MHOM/MX/1994/NINOA) strain epimastigotes. The series is described as follows: Trypanocidal activity, T. cruzi epimastigotes, NINOA strain (resazurin). It is filed as cell-based, Trypanosoma cruzi. The settings on record: 48 h.
Series [8] has as its system T. cruzi strain A1 epimastigotes. The series is described as follows: Trypanocidal activity, T. cruzi epimastigotes, A1 strain (resazurin). It is filed as cell-based, Trypanosoma cruzi. Particulars: Trypanosoma cruzi, 48 h.
Series [9] relates to intracellular amastigotes of the L. donovani 9515 strain. Further details: method as in PMID 35732232. The settings on record: read-out: IC50 against intracellular amastigotes of L. donovani 9515; cited from earlier work.

Each structure is given as a SMILES string. In brackets after ≈: the same amount, converted by molar mass. Bounds are passed on as bounds.

With `CC(C)(C)c1ccc(COc2ccc(C(=O)N/N=C/c3ccc([N+](=O)[O-])o3)cc2)cc1` [Compound 2d], the IC50 in [1] is 0.19 µM.
For the molecule `O=C(N/N=C/c1ccc([N+](=O)[O-])cc1)c1ccc(O)cc1` [Nfz-18], it took 2.45 ± 2.9 µM to reach half-maximal cytotoxicity in [2] (CC50 at 48 h). Besides, the “Cytotoxicity (CC50) Macrophages J774.2” value in series [3] is reported as “most toxic”. The molecule also displayed an MIC in series [4] of 186 µg/mL (≈ 653 µM). Further, the IC50 is > 200 µM in [5]; > 100 µM in series [5] (Leishmania mexicana); 57.8 ± 2.6 µM in series [6] (Leishmania mexicana); 44.6 ± 6.3 µM in series [7]; 44.5 µM in series [7] (Trypanosoma cruzi); > 100 µM in series [8].
Consider `CNC[C@H](O)[C@@H](O)[C@H](O)[C@H](O)CO.[O]=[Sb](=[O])[OH]` [Glucantime, reference compound], for which, in [3] (J774.2 macrophages, 48 h, MTT), the cytotoxic concentration (CC50) is > 200 µM. In addition, the IC50 in series [5] was 134 ± 3.1 µM; in [5] (listed as glucantime) it was 134 µM; in series [6], 125 ± 1.6 µM; in series [6] (listed as glucantime), > 120 µM.
For `O=C(N/N=C/c1ccc([N+](=O)[O-])o1)c1ccc(OS(=O)(=O)c2cccnc2)cc1` [Compound 1l], the IC50 in [1] is 1.26 µM; in [9] it was 3.26 µM.

As usually defined, the IC50 is the concentration that gives 50% inhibition. The term CC50 denotes the concentration giving 50% cytotoxicity. Usually MIC stands for the least concentration at which growth counts as inhibited. A high value points to weaker potency.
